In general, inhibition refers to the change of the read-out against control, counted positive when it falls. The term residual activity denotes the signal under treatment as a percentage of the control signal.

This passage reports inhibition and residual activity results from ChEMBL document CHEMBL5696442, “Discovery of type II inhibitors of TGFβ-activated kinase 1 (TAK1) and mitogen-activated protein kinase kinase kinase kinase 2 (MAP4K2)” (J Med Chem, 2015).

Calls of active or inactive are those of the source. No cut-off for these calls is given here.

Experiment [1] has as its target Interferon-induced, double-stranded RNA-activated protein kinase (Homo sapiens) (UniProt P19525). Put plainly: Inhibition of PKR Lys2 labeling site in human Huh-7 cell lysate at 1 uM by KiNativ Profiling analysis relative to control. It is filed as subcellular.
The target of experiment [2] is Ribosomal protein S6 kinase alpha-3 (Homo sapiens) (UniProt P51812). The experiment in a line: Inhibition of RSK2 domain2 Lys2 labeling site harbouring DLKPSNILYVDESGNPESIR in human Huh-7 cells at 1 uM by KiNativ Profiling analysis relative to control. Type of experiment: cell-based.
For experiment [3], the target named is T1, NUAK family SNF1-like kinase 1 (Homo sapiens) (UniProt O60285).
T1 sequence (whole entry): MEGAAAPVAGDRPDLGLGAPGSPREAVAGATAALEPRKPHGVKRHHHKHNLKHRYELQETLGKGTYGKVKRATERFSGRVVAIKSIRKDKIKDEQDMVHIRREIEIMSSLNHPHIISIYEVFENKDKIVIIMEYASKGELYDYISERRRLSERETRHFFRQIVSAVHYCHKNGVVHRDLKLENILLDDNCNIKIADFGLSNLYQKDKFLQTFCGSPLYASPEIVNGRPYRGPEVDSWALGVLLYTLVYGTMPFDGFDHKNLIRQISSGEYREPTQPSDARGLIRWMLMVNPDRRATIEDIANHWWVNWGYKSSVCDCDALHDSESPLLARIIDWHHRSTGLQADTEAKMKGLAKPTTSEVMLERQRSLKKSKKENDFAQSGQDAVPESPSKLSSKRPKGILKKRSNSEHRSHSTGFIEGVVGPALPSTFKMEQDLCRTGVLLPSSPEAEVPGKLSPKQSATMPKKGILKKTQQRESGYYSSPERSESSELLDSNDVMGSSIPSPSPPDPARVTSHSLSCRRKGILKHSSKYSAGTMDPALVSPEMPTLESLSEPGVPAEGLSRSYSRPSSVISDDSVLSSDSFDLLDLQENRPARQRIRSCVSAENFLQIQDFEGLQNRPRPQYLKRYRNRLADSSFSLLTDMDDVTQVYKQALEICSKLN
Put plainly: Inhibition of ARK5 (unknown origin) at 1 uM by Ambit Kinomescan binding assay relative to control.

For experiment [4], the target named is Mitogen-activated protein kinase kinase kinase 4 (Homo sapiens) (UniProt Q9Y6R4). The experiment in a line: Inhibition of MAP3K4 Lys2 labeling site in human A-375 cells at 0.05 uM by KiNativ Profiling analysis relative to control. It is filed as cell-based.
Mitogen-activated protein kinase kinase kinase 4 (Homo sapiens), sequence (Q9Y6R4 whole entry, the tested form may be a part): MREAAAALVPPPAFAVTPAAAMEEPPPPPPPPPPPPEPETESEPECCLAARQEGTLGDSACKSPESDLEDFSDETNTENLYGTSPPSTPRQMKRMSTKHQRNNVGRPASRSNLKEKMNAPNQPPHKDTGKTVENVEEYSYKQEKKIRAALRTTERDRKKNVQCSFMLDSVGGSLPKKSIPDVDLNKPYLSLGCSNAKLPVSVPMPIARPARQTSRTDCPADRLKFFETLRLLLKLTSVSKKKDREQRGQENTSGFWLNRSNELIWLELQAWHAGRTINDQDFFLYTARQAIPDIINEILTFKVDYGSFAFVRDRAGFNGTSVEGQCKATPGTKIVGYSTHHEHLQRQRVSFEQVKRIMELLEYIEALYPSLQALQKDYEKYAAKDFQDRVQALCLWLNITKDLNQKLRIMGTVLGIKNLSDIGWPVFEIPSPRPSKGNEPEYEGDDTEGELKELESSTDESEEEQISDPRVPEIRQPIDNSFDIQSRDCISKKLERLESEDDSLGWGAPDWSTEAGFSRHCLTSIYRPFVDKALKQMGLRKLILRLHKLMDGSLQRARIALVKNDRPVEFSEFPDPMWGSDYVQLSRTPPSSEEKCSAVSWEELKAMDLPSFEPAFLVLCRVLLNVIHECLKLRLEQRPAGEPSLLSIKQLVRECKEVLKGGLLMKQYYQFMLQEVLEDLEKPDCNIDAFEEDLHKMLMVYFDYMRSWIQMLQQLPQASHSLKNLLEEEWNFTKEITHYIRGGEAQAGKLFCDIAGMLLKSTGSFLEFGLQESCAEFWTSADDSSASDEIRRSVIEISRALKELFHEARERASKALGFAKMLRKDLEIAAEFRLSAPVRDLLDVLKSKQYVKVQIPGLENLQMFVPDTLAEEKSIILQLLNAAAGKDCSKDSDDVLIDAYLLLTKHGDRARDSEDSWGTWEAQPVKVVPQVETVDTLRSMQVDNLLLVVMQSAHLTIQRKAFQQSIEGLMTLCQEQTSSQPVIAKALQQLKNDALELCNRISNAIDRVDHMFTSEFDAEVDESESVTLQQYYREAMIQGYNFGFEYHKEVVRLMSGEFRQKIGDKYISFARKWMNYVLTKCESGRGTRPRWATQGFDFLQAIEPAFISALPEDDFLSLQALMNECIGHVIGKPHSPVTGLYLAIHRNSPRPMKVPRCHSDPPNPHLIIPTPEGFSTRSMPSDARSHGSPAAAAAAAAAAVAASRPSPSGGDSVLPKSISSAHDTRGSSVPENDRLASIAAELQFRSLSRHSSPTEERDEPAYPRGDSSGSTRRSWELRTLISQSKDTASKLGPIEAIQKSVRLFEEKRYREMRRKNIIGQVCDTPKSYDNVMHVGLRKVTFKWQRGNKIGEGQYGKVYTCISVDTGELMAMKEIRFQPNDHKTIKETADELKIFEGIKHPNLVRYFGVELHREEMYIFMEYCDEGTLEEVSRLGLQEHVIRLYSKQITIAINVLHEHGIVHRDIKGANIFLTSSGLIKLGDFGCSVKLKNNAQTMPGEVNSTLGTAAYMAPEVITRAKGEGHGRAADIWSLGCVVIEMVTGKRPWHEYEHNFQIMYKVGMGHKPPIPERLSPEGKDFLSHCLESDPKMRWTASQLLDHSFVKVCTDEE
For experiment [5], the target named is Phosphatidylinositol 3-kinase C2 domain-containing subunit gamma (Homo sapiens) (UniProt O75747). Put plainly: Inhibition of PIK3C2G (unknown origin) at 1 uM by Ambit Kinomescan binding assay relative to control; values are per cent of control.
Phosphatidylinositol 3-kinase C2 domain-containing subunit gamma (Homo sapiens), sequence (O75747 whole entry, the tested form may be a part): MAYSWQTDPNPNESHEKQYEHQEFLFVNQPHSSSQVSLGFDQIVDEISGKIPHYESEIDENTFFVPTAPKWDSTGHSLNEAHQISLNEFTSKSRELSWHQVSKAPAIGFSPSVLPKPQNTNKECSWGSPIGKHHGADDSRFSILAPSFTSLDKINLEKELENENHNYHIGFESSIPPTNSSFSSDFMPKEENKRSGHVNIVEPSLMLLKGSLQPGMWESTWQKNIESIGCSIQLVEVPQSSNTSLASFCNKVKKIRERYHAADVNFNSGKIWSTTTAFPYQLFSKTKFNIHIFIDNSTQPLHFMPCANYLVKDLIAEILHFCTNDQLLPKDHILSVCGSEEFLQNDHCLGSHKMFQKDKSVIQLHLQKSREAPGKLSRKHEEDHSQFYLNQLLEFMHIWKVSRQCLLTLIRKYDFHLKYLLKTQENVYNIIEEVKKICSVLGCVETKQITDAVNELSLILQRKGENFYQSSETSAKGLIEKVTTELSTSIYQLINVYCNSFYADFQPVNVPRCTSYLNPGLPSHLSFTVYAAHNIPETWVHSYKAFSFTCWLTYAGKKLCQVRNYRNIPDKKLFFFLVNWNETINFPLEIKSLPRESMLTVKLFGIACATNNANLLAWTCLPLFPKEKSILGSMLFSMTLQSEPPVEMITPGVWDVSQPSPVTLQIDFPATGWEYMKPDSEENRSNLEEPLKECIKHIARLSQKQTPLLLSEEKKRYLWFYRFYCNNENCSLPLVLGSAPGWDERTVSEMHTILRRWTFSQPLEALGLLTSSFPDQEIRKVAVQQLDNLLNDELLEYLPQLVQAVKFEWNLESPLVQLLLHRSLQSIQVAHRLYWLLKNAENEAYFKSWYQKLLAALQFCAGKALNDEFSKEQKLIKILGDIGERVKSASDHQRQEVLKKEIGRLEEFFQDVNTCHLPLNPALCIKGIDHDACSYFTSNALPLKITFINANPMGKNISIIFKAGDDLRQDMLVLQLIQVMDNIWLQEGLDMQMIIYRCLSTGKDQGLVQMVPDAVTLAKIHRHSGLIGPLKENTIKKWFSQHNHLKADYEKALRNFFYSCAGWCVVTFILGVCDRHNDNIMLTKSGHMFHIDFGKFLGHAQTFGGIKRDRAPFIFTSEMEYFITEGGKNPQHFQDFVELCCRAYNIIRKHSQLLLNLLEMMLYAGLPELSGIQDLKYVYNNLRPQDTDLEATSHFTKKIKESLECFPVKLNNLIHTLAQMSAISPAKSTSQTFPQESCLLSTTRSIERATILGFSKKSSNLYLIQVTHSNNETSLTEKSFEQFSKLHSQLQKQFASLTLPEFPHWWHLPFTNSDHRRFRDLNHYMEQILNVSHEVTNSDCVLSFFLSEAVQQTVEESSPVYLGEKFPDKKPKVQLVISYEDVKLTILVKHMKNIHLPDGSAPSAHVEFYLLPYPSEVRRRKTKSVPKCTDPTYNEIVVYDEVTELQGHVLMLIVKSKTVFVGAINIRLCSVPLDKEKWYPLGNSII
Experiment [6] deals with Serine/threonine-protein kinase DCLK2 (Homo sapiens) (UniProt Q8N568). Put plainly: Inhibition of DCAMKL2 (unknown origin) at 10 uM by Ambit Kinomescan binding assay.
Experiment [7] deals with T2, Myotonin-protein kinase (Homo sapiens) (UniProt Q09013).
T2 sequence (whole entry): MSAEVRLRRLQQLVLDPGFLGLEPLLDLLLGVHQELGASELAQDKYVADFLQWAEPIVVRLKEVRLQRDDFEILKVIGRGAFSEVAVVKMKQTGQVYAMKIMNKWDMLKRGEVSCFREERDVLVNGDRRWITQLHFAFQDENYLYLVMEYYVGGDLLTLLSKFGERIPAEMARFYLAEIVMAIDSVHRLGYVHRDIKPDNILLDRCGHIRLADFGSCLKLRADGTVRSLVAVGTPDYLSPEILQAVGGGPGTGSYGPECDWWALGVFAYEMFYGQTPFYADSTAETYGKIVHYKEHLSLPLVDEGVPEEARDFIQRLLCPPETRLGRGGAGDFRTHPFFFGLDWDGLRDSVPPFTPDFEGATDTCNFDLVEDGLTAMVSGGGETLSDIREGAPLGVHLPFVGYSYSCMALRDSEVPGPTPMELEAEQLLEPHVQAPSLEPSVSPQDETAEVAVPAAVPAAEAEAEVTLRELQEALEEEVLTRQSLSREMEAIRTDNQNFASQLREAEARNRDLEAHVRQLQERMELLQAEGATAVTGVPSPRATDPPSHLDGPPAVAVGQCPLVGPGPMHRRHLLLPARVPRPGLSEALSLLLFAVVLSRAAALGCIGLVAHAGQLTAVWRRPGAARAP
Put plainly: Inhibition of DMPK (unknown origin) at 10 uM by Ambit Kinomescan binding assay.

Experiment [8] deals with Mitogen-activated protein kinase 4 (Homo sapiens) (UniProt P31152). The experiment in a line: Inhibition of ERK4 (unknown origin) at 10 uM by Ambit Kinomescan binding assay.
Mitogen-activated protein kinase 4 (Homo sapiens), sequence (P31152 whole entry): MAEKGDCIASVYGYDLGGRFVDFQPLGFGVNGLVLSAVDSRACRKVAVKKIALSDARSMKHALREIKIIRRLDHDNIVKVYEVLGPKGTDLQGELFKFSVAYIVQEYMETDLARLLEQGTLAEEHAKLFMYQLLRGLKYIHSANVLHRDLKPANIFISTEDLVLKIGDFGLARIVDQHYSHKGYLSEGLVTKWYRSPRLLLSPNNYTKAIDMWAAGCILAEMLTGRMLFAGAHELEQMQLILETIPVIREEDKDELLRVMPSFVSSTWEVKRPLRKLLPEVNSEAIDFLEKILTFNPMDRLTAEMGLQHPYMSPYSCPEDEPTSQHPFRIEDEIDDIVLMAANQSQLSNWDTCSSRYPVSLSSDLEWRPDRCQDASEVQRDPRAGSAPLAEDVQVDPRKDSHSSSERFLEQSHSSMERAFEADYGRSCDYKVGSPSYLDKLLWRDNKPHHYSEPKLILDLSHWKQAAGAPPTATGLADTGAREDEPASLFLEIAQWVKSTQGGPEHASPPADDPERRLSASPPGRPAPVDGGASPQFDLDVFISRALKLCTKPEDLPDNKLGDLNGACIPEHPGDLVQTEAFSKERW
In experiment [9] the target is Tyrosine-protein kinase Lyn (Homo sapiens, UniProt P07948). The experiment in a line: Inhibition of LYN Lys1 labeling site in human A-375 cells at 0.05 uM by KiNativ Profiling analysis relative to control. It is filed as cell-based.
The target of experiment [10] is Rho-associated protein kinase 1 (Homo sapiens) (UniProt Q13464). Put plainly: Inhibition of ROCK1 Lys2 labeling site in human A-375 cells at 0.05 uM by KiNativ Profiling analysis relative to control. It is filed as cell-based.
The target of experiment [11] is Cyclin-dependent kinase 5 (Homo sapiens) (UniProt Q00535). The experiment in a line: Inhibition of CDK5 K2 labeling site harbouring DLKPQNLLINR in human Huh-7 cells at 10 uM by KiNativ Profiling analysis relative to control. It is filed as cell-based.
Cyclin-dependent kinase 5 (Homo sapiens), sequence (Q00535 whole entry, looked up): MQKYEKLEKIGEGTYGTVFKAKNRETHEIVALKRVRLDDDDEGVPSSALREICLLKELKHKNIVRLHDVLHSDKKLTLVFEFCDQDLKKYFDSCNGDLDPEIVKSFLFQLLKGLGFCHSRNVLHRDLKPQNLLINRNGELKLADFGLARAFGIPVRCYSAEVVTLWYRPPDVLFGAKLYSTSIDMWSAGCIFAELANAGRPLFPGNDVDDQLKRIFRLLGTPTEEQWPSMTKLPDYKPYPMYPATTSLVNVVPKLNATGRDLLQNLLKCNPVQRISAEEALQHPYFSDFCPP
The target in experiment [12] is Casein kinase II subunit alpha (Homo sapiens) (UniProt P68400). Put plainly: Inhibition of CK2a1 in human Huh-7 cells at 10 uM by KiNativ Profiling analysis relative to control. Type of experiment: cell-based.
In experiment [13] the target is Calcium/calmodulin-dependent protein kinase type 1 (Homo sapiens) (UniProt Q14012). The experiment in a line: Inhibition of CaMK1a K1 labeling site in human Huh-7 cells at 1 uM by KiNativ Profiling analysis relative to control. Type of experiment: cell-based.
Calcium/calmodulin-dependent protein kinase type 1 (Homo sapiens), sequence (Q14012 whole entry, looked up): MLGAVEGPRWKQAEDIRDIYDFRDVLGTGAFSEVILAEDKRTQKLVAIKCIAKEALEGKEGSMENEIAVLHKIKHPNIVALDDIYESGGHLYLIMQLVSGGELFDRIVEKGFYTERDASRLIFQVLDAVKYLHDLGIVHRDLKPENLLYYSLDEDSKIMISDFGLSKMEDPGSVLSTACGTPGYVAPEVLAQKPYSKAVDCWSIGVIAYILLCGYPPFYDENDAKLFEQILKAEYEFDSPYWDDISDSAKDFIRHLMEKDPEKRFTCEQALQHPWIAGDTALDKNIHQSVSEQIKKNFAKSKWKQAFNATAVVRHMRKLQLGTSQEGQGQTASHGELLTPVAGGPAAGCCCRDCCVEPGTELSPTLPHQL

Interferon-induced, double-stranded RNA-activated protein kinase (Homo sapiens), sequence (P19525 whole entry, the tested form may be a part): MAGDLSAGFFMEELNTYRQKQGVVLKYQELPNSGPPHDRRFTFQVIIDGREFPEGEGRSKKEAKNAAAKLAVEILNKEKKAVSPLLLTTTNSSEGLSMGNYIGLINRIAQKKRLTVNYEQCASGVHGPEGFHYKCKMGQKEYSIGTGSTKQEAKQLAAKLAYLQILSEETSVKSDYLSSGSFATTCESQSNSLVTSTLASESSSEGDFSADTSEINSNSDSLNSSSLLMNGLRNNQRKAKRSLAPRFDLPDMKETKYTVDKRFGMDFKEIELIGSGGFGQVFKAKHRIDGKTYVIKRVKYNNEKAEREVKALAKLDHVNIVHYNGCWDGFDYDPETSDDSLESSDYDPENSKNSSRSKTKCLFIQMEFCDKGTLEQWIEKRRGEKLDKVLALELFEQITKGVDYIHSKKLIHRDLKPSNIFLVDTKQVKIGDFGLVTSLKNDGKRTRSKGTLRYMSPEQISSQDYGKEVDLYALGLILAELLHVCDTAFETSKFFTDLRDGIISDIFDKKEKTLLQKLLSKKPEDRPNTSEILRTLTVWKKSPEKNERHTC

On to `CNc1cc(Oc2cc(C(=O)Nc3cc(N4CCN(C)CC4)cc(C(F)(F)F)c3)ccc2C)ncn1`, for which the figures for the inhibition in [1] and in experiment [2] were -3.6% and 11.7%, respectively.

Consider `CCN1CCN(Cc2ccc(NC(=O)c3ccc(C)c(/C=C/c4cnc5[nH]ccc5c4OC)c3)cc2C(F)(F)F)CC1`, for which the inhibition is 100% in experiment [3] and -0.6% in experiment [4]. In experiment [5], this molecule displayed a residual activity of 100%.

On to `CCN1CCN(Cc2ccc(NC(=O)c3ccc(C)c(Oc4ccnc5[nH]ccc45)c3)cc2C(F)(F)F)CC1`, for which the inhibition entry in experiment [6], in [7] and in experiment [8] was “inactive” throughout. For the same molecule, the inhibition in experiment [9] was 71.9%; in experiment [10], 6%; in [11], -6.3%; in [12], 12.3%; in experiment [13], 19%.
